Literature values, collected in patent US8119653B2, “Belactosin derivatives as therapeutic agents/biological probes and their synthesis” (The Texas A&M University System, priority 2006, dated 2012).

Tests used:
[1] = in vivo

- bioavailability [1]: poor
- solubility: poor
Structure (SMILES): CCCCCCCCCCC[C@@H](C[C@@H]1OC(=O)[C@H]1CCCCCC)OC(=O)[C@H](CC(C)C)NC=O [Orlistat]
- tumor growth in vivo (tumor growth): can inhibit tumor growth
- effect on tumor cells in vitro (tumor cells): cytotoxic and cytostatic
